According to patent US20050148553A1, “Use of tigecycline, alone, or in combination with rifampin to treat osteomyelitis and/or septic arthritis” (priority 2003, published 2005):
In brackets after ≈: the same amount, converted by molar mass.

Columns and labels:
M. abcessus = assay: Susceptibility/MIC of patient isolate, compassionate use study; type: cell-based, Mycobacterium abscessus
[1] = system: methicillin-resistant S. aureus; assay: microbe, parasite or virus in culture; type: cell-based, Staphylococcus aureus; details: Staphylococcus aureus, MRSA
Experimental: The minimum inhibitory concentrations (MIC) of tigecycline, vancomycin and rifampin were determined using an antibiotic two-fold tube-dilution method. The minimum bactericidal concentrations were also determined. The limits of sensitivity of this method were 25 μg/ml to 0.20 μg/ml.

[2] = Whole body autoradiography after 30-minute 3 mg/kg IV infusion of [^14C]-tigecycline; type: in vivo, Long-Evans rats
Experimental: Male Sprague-Dawley and Long-Evans rats were obtained from Charles River Breeding Laboratories, Raleigh, N.C., and were quarantined for at least one week prior to the start of the study. […] The dosing solution was diluted and radioassayed directly in Ultima Gold scintillation counting cocktail (Packard Inc.). […] All pumps were calibrated prior to the administration of the compound. Rats were anesthetized with isoflurane prior to cardiac puncture exsanguination at the prescribed times after dosing. Sprague-Dawley and Long-Evans rats were sacrificed one per time point at 0.5, 8.5, 24, 72, 168 and 336 hr post-dose. Immediately following euthanasia, each rat was totally immersed in a bath of hexane and dry ice (−75° C.) until frozen. Each carcass was dried and stored at −30° C. until embedded. […] Each frozen rat was sagitally sectioned at −20° C. A sufficient number of sections were collected to ensure sampling of all tissues of interest. The sections were dehydrated overnight in a cryochamber and then rapidly transferred to a dessicator containing CaSO4 to prevent condensation of atmospheric moisture while equilibrating to room temperature. The sections were mounted on cardboard and labeled with [^14C]-labeled black ink with a unique identification number. […] A small piece of Scotch tape was placed over the dried radioactive ink to prevent the contamination of the storage phosphor screens. Phosphor imaging plates, BAS-SR 2025 (Fuji Photo Film Co., Japan) were exposed to bright visible light for 20 minutes using an IP eraser (Raytest, USA Inc., New Castle, Del.) to remove background radiation. Sections and calibration blood standards were concurrently placed in direct contact with Ips and exposed for 7 days. All sections were stored at room temperature in a lead shielding box to minimize background levels. Phosphor images were generated using a Fujifilm BAS-5000 Bio-Imaging Analyzer and quantitated by MCID M2 Software, version 3.2 (Imaging Research Inc., St. Catherines, Ontario, Canada). The STDs and QCs were analyzed using the circular sampling tool in the MCID software program. Areas of interest in whole-body sections were manually outlined with the regional sampling tool to generate count data. Radioactive concentrations in select tissues were determined by digital analysis of the resulting autoradiograms on the basis of a calibration curve. […] The linear regression curve was then used to determine the concentration of unknown radioactivity of study samples. […] Blood samples were combusted using a Model 307 sample oxidizer (Packard Instrument Company). […] Research Triangle Park, N.C.), which applies a model-independent approach and standard procedures as described in Gibaldi and Perrier. Gibaldi, Pharmacokinetics, 1982. […] For IV infusion dosing, C30 min was the concentration at 30 minutes, the first sampling time point. The maximum plasma concentration (Cmax) and the corresponding time of peak concentration following IV administration were obtained directly by numerical inspection from the individual concentration-time data. The terminal half-life was calculated by the ratio of ln2/λz where λz is derived from the terminal slope of the concentration time curve. The area under the plasma concentration versus time curve from zero to infinity was calculated using the trapezoidal rule, where Clast is the last measurable plasma concentration. Tissue to plasma concentration ratios were calculated according to the following equation: Ctissue/Cplasma, where Ctissue equals the drug concentration in tissue (ng equiv./g), and Cplasma equals the drug concentration in plasma (ng equiv./g).

Question: Which results are given for `CN(C)c1cc(NC(=O)CNC(C)(C)C)c(O)c2c1C[C@H]1C[C@H]3[C@H](N(C)C)C(O)=C(C(N)=O)C(=O)[C@@]3(O)C(O)=C1C2=O` [Tigecycline]?
Answer: susceptibility of the organism (M. abcessus; M. abscessus patient isolate): susceptible; MIC (M. abcessus; Mycobacteroides abscessus, M. abcessus from a human patient, read-out: minimum inhibitory concentration): 0.25 µg/mL; MBC ([1]; read-out: minimum bactericidal concentration (MBC)): 0.2 µg/mL (≈ 0.341 µM); MIC ([1]; read-out: minimum inhibitory concentration (MIC), MRSA study strain, inoculum 10^6 CFU/ml): < 0.2 µg/mL

Question: For `CN(C)c1cc(NC(=O)CNC(C)(C)C)c(O)c2c1C[C@H]1C[C@H]3[C@H](N(C)C)C(O)=C(C(N)=O)C(=O)[C@@]3(O)C(O)=C1C2=O` [[^14C]-Tigecycline], which AUC ([2]; Blood) is on record?
Answer: Its AUC is 21954 Ng eq hr/g.

Question: And the T1/2 ([2]; Blood)?
Answer: Its T1/2 is 62 h.

Question: What about the “Mean concentration of total radioactivity” value (“Mean concentration” below) ([2]; Blood, 0.5 Hrs) of the same molecule?
Answer: Its value is 1296 ng equiv./g.

Question: And the “Tissue:Plasma Ratio” value ([2]; Blood, 0.5 Hrs)?
Answer: The value was 1.33.

Question: And the “Mean concentration” value ([2]; Blood, 24 Hrs)?
Answer: Its value is 340 ng equiv./g.

Question: And the “Tissue:Plasma Ratio” value ([2]; Blood, 24 Hrs)?
Answer: The value was 4.81.

Question: What about the “Mean concentration” value ([2]; Blood, 72 Hrs) of the same molecule?
Answer: Its value is 11.8 ng equiv./g.

Question: And the “Tissue:Plasma Ratio” value ([2]; Blood, 72 Hrs)?
Answer: Its value is 5.05.

Question: What about the “Mean concentration” value ([2]; Blood, 168 Hrs) of the same molecule?
Answer: Its value is 2.72 ng equiv./g.

Question: And the “Tissue:Plasma Ratio” value ([2]; Blood, 168 Hrs)?
Answer: The value was 5.05.

Question: And the “Mean concentration” value ([2]; Blood, 336 Hrs)?
Answer: Its value is 1.24 ng equiv./g.

Question: And the AUC ([2]; Blood, first AUC column)?
Answer: The AUC was 21843 Ng eq hr/g.

Question: And the AUC ([2]; Plasma)?
Answer: Its AUC is 12938 Ng eq hr/g.

Question: What about the T1/2 ([2]; Plasma) of the same molecule?
Answer: The T1/2 was 19 h.

Question: What about the “Mean concentration” value ([2]; Plasma, 0.5 Hrs) of the same molecule?
Answer: Its value is 975 ng equiv./g.

Question: And the “Tissue:Plasma Ratio” value ([2]; Plasma, 0.5 Hrs)?
Answer: Its value is 1.00.

Question: What about the “Mean concentration” value ([2]; Plasma, 24 Hrs) of the same molecule?
Answer: The value was 70.5 ng equiv./g.

Question: What about the “Tissue:Plasma Ratio” value ([2]; Plasma, 24 Hrs) of the same molecule?
Answer: Its value is 1.00.

Question: And the “Mean concentration” value ([2]; Plasma, 72 Hrs)?
Answer: Its value is 4.31 ng equiv./g.

Question: What about the “Tissue:Plasma Ratio” value ([2]; Plasma, 72 Hrs) of the same molecule?
Answer: The value was 1.00.

Question: And the “Mean concentration” value ([2]; Plasma, 168 Hrs)?
Answer: The value was less than 1.03 ng equiv./g.

Question: And the “Tissue:Plasma Ratio” value ([2]; Plasma, 168 Hrs)?
Answer: The value was 1.00.

Question: And the “Mean concentration” value ([2]; Plasma, 336 Hrs)?
Answer: The value was less than 1.03 ng equiv./g.

Question: What about the AUC ([2]; Plasma, first AUC column) of the same molecule?
Answer: Its AUC is 12923 Ng eq hr/g.

Question: What about the AUC ([2]; Skin) of the same molecule?
Answer: Its AUC is 109296 Ng eq hr/g.

Question: And the Cmax ([2]; Skin)?
Answer: The Cmax was 1997 Ng equiv/g.

Question: What about the T1/2 ([2]; Skin) of the same molecule?
Answer: Its T1/2 is 473 h.

Question: And the “tissue concentration at 336 hours as % of Cmax” value ([2]; Skin)?
Answer: Its value is 8%.

Question: And the “Mean concentration” value ([2]; Skin, 0.5 Hrs)?
Answer: Its value is 2502 ng equiv./g.

Question: What about the “Tissue:Plasma Ratio” value ([2]; Skin, 0.5 Hrs) of the same molecule?
Answer: Its value is 2.05.

Question: What about the “Mean concentration” value ([2]; Skin, 24 Hrs) of the same molecule?
Answer: Its value is 2363 ng equiv./g.

Question: And the “Tissue:Plasma Ratio” value ([2]; Skin, 24 Hrs)?
Answer: Its value is 8.76.

Question: What about the “Mean concentration” value ([2]; Skin, 72 Hrs) of the same molecule?
Answer: Its value is 1787 ng equiv./g.

Question: And the “Tissue:Plasma Ratio” value ([2]; Skin, 72 Hrs)?
Answer: Its value is 179.

Question: What about the “Mean concentration” value ([2]; Skin, 168 Hrs) of the same molecule?
Answer: Its value is 351 ng equiv./g.

Question: What about the “Tissue:Plasma Ratio” value ([2]; Skin, 168 Hrs) of the same molecule?
Answer: Its value is 179.

Question: And the “Mean concentration” value ([2]; Skin, 336 Hrs)?
Answer: The value was 211 ng equiv./g.

Question: And the AUC ([2]; Skin, first AUC column)?
Answer: The AUC was 58287 Ng eq hr/g.

Question: What about the AUC ([2]; Uveal Tract) of the same molecule?
Answer: Its AUC is 233288 Ng eq hr/g.

Question: What about the Cmax ([2]; Uveal Tract) of the same molecule?
Answer: The Cmax was 2502 Ng equiv/g.

Question: And the T1/2 ([2]; Uveal Tract)?
Answer: The T1/2 was 201 h.

Question: What about the “tissue concentration at 336 hours as % of Cmax” value ([2]; Uveal Tract) of the same molecule?
Answer: The value was 1%.

Question: What about the “Mean concentration” value ([2]; Uveal Tract, 0.5 Hrs) of the same molecule?
Answer: Its value is 1997 ng equiv./g.

Question: What about the “Tissue:Plasma Ratio” value ([2]; Uveal Tract, 0.5 Hrs) of the same molecule?
Answer: The value was 2.57.

Question: What about the “Mean concentration” value ([2]; Uveal Tract, 24 Hrs) of the same molecule?
Answer: The value was 124 ng equiv./g.

Question: And the “Tissue:Plasma Ratio” value ([2]; Uveal Tract, 24 Hrs)?
Answer: The value was 25.7.

Question: What about the “Mean concentration” value ([2]; Uveal Tract, 72 Hrs) of the same molecule?
Answer: Its value is 96.5 ng equiv./g.

Question: What about the “Tissue:Plasma Ratio” value ([2]; Uveal Tract, 72 Hrs) of the same molecule?
Answer: The value was 393.

Question: What about the “Mean concentration” value ([2]; Uveal Tract, 168 Hrs) of the same molecule?
Answer: The value was 74.8 ng equiv./g.

Question: And the “Tissue:Plasma Ratio” value ([2]; Uveal Tract, 168 Hrs)?
Answer: The value was 393.

Question: What about the “Mean concentration” value ([2]; Uveal Tract, 336 Hrs) of the same molecule?
Answer: Its value is 19.3 ng equiv./g.

Question: What about the AUC ([2]; Uveal Tract, first AUC column) of the same molecule?
Answer: The AUC was 131346 Ng eq hr/g.

Question: What about the T1/2 ([2]; Uveal Tract, listed as [^14C]-tigecycline) of the same molecule?
Answer: Its T1/2 is 20 h.
